Common to all, as to assay: NCI anticancer screen, dose series, 48 h
Assay [1] relates to SNB-75.
Assay [2] has as its system SNB-19.
For assay [3], the system named is SF-268.
Assay [4] deals with RXF 393.
In assay [5] the test system is MCF7.
Assay [6] has as its system LOX IMVI.
For assay [7], the system named is HCC 2998.
In assay [8] the test system is NCI-H522.
Assay [9] has as its system NCI/ADR-RES.
Assay [10] deals with NCI-H226.
Assay [11] relates to PC-3.
The subject of assay [12] is UACC-257.
Assay [13] has as its system BT-549.
Assay [14] concerns CAKI-1.
The test system of assay [15] is OVCAR-8.
For assay [16], the system named is COLO 205.
Assay [17] concerns HCT-15.
In assay [18] the test system is ACHN.
Assay [19] has as its system T47D.
Assay [20] concerns SR.

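Cultured in 96-well plates, cells were exposed to test compound for 48 hours across five concentrations. GI50 marks 50% less growth.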 The source made the active and inactive calls. Rule as the data show it: active = GI50 up to about 1.1 µM and inactive = higher. Where only a bound is given, the exact number is not on record here.

As for `Cc1cccc2nc3c(=O)[nH]c(=O)nc-3n(C)c12`, the GI50 in assay [1] was > 100 µM (inactive); in [2], 71.3 µM (inactive); in [3], 50.4 µM (inactive); in assay [4] it was > 100 µM (inactive); in [5], 34.5 µM (inactive); in assay [6], 54 µM (inactive). For the same compound, the GI50 in assay [7] is 86.1 µM (inactive); in assay [8], 29.2 µM (inactive); in assay [9] it was 82.2 µM (inactive); in assay [10] it was > 100 µM (inactive); in [11], 66.7 µM (inactive); in assay [12], 34.4 µM (inactive). For the same compound, the GI50 in assay [13] was 84.9 µM (inactive); in [14], > 100 µM (inactive); in [15], 52 µM (inactive); in assay [16], 30.2 µM (inactive); in assay [17], 52.8 µM; in assay [18], > 100 µM (inactive). Moreover, the GI50 in assay [19] is 53.3 µM (inactive).
As for `Cc1nc(C)c(C(=O)NNC(=O)Cc2ccccc2)cc1C(=O)NNC(=O)Cc1ccccc1`, the GI50 in assay [1] is 94 µM (inactive); in [2], > 100 µM (inactive); in [3] it was > 100 µM (inactive); in assay [4], > 100 µM (inactive); in [5], > 100 µM (inactive); in [6], > 100 µM (inactive). Besides, the GI50 in [7], in assay [8], in assay [9], in assay [10], in assay [11] and in [12] was > 100 µM (inactive) throughout. The GI50 is > 100 µM (inactive) in assay [13]; > 100 µM (inactive) in assay [14]; > 100 µM (inactive) in assay [15]; > 100 µM (inactive) in assay [16]; over 100 µM in [17]; > 100 µM (inactive) in [18]. For the same compound, in assay [19], the GI50 was > 100 µM (inactive).
For the compound `CC(=O)C1(O)Cc2c(O)c3c(c(O)c2C(OC2CC(N)C(O)C(C)O2)C1)C(=O)c1ccccc1C3=O` (stereo unspecified), the GI50 in [1] was 0.0132 µM (active); in [2], 0.0373 µM (active); in [3], 0.0215 µM (active); in [5], 0.00458 µM (active); in [20] it was 0.0292 µM (active); in assay [6], 0.01 µM (active). Also, the GI50 is 0.0385 µM (active) in [7]; 0.015 µM (active) in assay [8]; 0.297 µM (active) in assay [9]; 0.0163 µM (active) in assay [10]; 0.247 µM (active) in assay [11]; 0.121 µM (active) in assay [12]. Besides, the GI50 was 0.134 µM (active) in assay [13]; 0.00836 µM (active) in [14]; 0.0327 µM (active) in assay [15]; 0.0796 µM (active) in assay [16]; 0.0277 µM in assay [17]; 0.00438 µM (active) in assay [18]. In addition, the GI50 in [19] is 0.0497 µM (active).
On to `N#CC1C(=O)NC(=O)C(C#N)C1c1ccc(Cl)c(Cl)c1` (stereo unspecified), for which the GI50 in assay [1] was 25.2 µM (inactive); in assay [2] it was 91.2 µM (inactive); in assay [3], 34.8 µM (inactive); in assay [4], 21 µM (inactive); in assay [5], 34.4 µM (inactive); in [20] it was 18.2 µM (inactive). Besides, the GI50 in assay [6] is 17.1 µM (inactive); in assay [8] it was 15.7 µM (inactive); in assay [9], 28 µM (inactive); in assay [11] it was 28.2 µM (inactive); in [12] it was 35.9 µM (inactive); in assay [13], 33.3 µM (inactive). Further, the GI50 in assay [14] is 22.4 µM (inactive); in [15], 37.4 µM (inactive); in assay [16] it was > 100 µM (inactive); in assay [17], 21.5 µM; in assay [18], 22.4 µM (inactive); in assay [19] it was 33.3 µM (inactive).
Regarding `Oc1ccc(-c2c3c(nc4c2CCc2ccc(Br)cc2-4)-c2cc(Br)ccc2CC3)cc1`, the GI50 in [1] is 23.9 µM (inactive); in assay [2], 23.6 µM (inactive); in assay [3] it was 21.7 µM (inactive); in [5], 16.8 µM (inactive); in assay [7], 20.7 µM (inactive); in [8], 25.6 µM (inactive). In addition, the GI50 in assay [9] is 23 µM (inactive); in assay [10], 23.3 µM (inactive); in [11], 17.9 µM (inactive); in [12] it was 27 µM (inactive); in assay [13] it was 24 µM (inactive); in assay [14] it was 17.7 µM (inactive). The GI50 in assay [16] is 17.2 µM (inactive); in assay [17], 18.9 µM; in assay [18] it was 20.7 µM (inactive); in assay [19], 21.2 µM (inactive).
Consider `O=[N+]([O-])c1ccc(NS(=O)(=O)C(F)(F)F)cc1`, for which the GI50 in [1], in assay [2], in assay [3], in [4], in assay [5] and in assay [6] was > 100 µM (inactive) in each case. Also, the GI50 is 22.1 µM (inactive) in assay [8]; > 100 µM (inactive) in [9]; > 100 µM (inactive) in [10]; > 100 µM (inactive) in assay [11]; > 100 µM (inactive) in [12]; > 100 µM (inactive) in assay [13]. The GI50 in assay [14] was > 100 µM (inactive); in assay [15] it was > 100 µM (inactive); in [16], > 100 µM (inactive); in assay [17], over 100 µM; in assay [18] it was > 100 µM (inactive); in assay [19], > 100 µM (inactive).
Take `CCOP(=O)(CC1OC(CO)C(O)C1O)OCC` (stereo unspecified): the GI50 in [1], in assay [2], in assay [3], in assay [4], in assay [5] and in [20] was > 100 µM (inactive) each time. Besides, the GI50 in assay [6], in assay [7], in assay [8], in assay [11], in assay [12] and in assay [13] was > 100 µM (inactive) each time. Further, the GI50 was > 100 µM (inactive) in [14]; > 100 µM (inactive) in [16]; over 100 µM in [17]; > 100 µM (inactive) in [18]; > 100 µM (inactive) in [19].
For `O=C(NP(=O)(N1CC1)N1CC1)c1cc(I)ccc1I` [DIIODBENZOTEPH], the GI50 was 37.9 µM (inactive) in assay [1]; 53.7 µM (inactive) in assay [2]; 27.3 µM (inactive) in assay [3]; 34.6 µM (inactive) in [4]; 38 µM (inactive) in assay [5]; 12.4 µM (inactive) in [6]. Moreover, the GI50 in [7] was > 67.9 µM (inactive); in assay [8], 27.3 µM (inactive); in assay [9] it was 23.3 µM (inactive); in [10] it was 46.1 µM (inactive); in assay [11], > 67.3 µM (inactive); in [12], > 64.3 µM (inactive). The GI50 in assay [13] was 53.7 µM (inactive); in [14], > 22.3 µM (inactive); in [15], 31.2 µM (inactive); in assay [16], > 91.4 µM (inactive); in [17] it was 69.3 µM; in assay [18], 6.05 µM (inactive). The GI50 in assay [19] was 22.9 µM (inactive).
With `[N-]=[N+]=NC1(c2ccccc2)C(=O)c2cccc3c4ccccc4n(c23)C1=O` (stereo unspecified), the GI50 in assay [1] was > 100 µM (inactive); in [2], > 100 µM (inactive); in assay [3] it was > 100 µM (inactive); in [4] it was > 100 µM (inactive); in assay [5], 54 µM (inactive); in [6], > 100 µM (inactive). Moreover, the GI50 in assay [7] is > 100 µM (inactive); in assay [8], 45.6 µM (inactive); in assay [9], 33.5 µM (inactive); in assay [10] it was > 100 µM (inactive); in assay [11], > 100 µM (inactive); in assay [12] it was > 100 µM (inactive). Moreover, the GI50 is > 100 µM (inactive) in assay [13]; > 100 µM (inactive) in assay [14]; > 100 µM (inactive) in assay [15]; 6.5 µM (inactive) in [16]; over 100 µM in assay [17]; > 100 µM (inactive) in assay [18]. Besides, the GI50 in assay [19] was > 100 µM (inactive).
Regarding `Nc1ccn(C2CC3OCC3O2)c(=O)n1` (stereo unspecified), the GI50 in assay [1], in assay [2], in assay [3], in assay [5], in assay [20] and in assay [6] was > 100 µM (inactive) each time. Also, the GI50 in [8], in assay [9], in assay [10], in [11], in assay [12] and in assay [13] was > 100 µM (inactive) in each case. Further, the GI50 in assay [14] is > 100 µM (inactive); in [15], > 100 µM (inactive); in assay [16], > 100 µM (inactive); in [17] it was over 100 µM; in assay [18], > 100 µM (inactive); in [19] it was > 100 µM (inactive).
Turning to `COc1ccc(CC2C(=O)NC(C)C(=O)N(C)C3C(=O)N(C)C(Cc4ccc(O)c(c4)Oc4ccc(cc4)C3O)C(=O)NC(C)C(=O)NC(C)C(=O)N2C)cc1.COc1ccc(CC2C(=O)NC(C)C(=O)N(C)C3Cc4ccc(cc4)Oc4cc(ccc4O)CC(C(=O)NC(C)C(=O)NC(C)C(=O)N2C)N(C)C3=O)cc1` (stereo unspecified), the GI50 in assay [1] is 0.01 µM (active); in assay [2], 0.000638 µM (active); in [3], 0.00316 µM (active); in assay [5], 0.00215 µM (active); in assay [20] it was 0.01 µM (active); in assay [6], 0.00237 µM (active). The GI50 is 0.00619 µM (active) in [7]; 0.01 µM (active) in [8]; 1.5 µM (inactive) in assay [9]; 0.00233 µM (active) in assay [10]; 0.00601 µM (active) in [11]; 0.00322 µM (active) in assay [12]. For the same compound, the GI50 in [13] was 0.00321 µM (active); in [14] it was 0.137 µM (active); in assay [15], 0.0128 µM (active); in assay [16] it was 0.03 µM (active); in assay [17], 0.483 µM; in [18], 0.0995 µM (active). Also, in assay [19], the GI50 was 0.00446 µM (active).

The record behind these values is ChEMBL document CHEMBL1201862, “PubChem BioAssay data set” (2004).
